Test results taken from the OligoGym collection.
After the bases stand the sugars from the 5' end (letter, count) and the backbone: PS all phosphorothioate, else s phosphorothioate and o phosphodiester by linkage. Methylation of C is not given here. e = 2'-O-(2-methoxyethyl) (MOE); k = constrained ethyl (cEt); d = 2'-deoxy (DNA); m = 2'-O-methyl

Target: HSD17B13
Conditions: ASO, HepaRG

Sequence: AAAAAGCTTATCGAGT (sugars k3 d10 k3, PS)
- target mRNA inhibition (1 µM): 8%

Sequence: AAAAGGTTATCATGGG (sugars k3 d10 k3, PS)
- target mRNA inhibition (1 µM): 49%

Sequence: AAAATAGAGTCGGTCA (sugars k3 d9 k3 e1, PS)
- target mRNA inhibition (1 µM): 65%

Sequence: AAAATAGAGTCGGTCA (sugars k3 d10 k3, PS)
- target mRNA inhibition (0.02 µM): 28%
- target mRNA inhibition (0.078 µM): 27%
- target mRNA inhibition (0.313 µM): 51%
- target mRNA inhibition (1 µM): 71%
- target mRNA inhibition (1.25 µM): 69%
- target mRNA inhibition (5 µM): 91%

Sequence: AAAATGTCCTAGGATG (sugars k3 d10 k3, PS)
- target mRNA inhibition (1 µM): 0%

Sequence: AAACAAGAGGATAGTC (sugars k3 d1 m1 d8 k3, PS)
- target mRNA inhibition (1 µM): 53%

Sequence: AAACATGGATGTTAGG (sugars k3 d10 k3, PS)
- target mRNA inhibition (1 µM): 56%

Sequence: AAACTAGTGGTAATGG (sugars k3 d10 k3, PS)
- target mRNA inhibition (1 µM): 47%

Sequence: AAACTTCACCAACGAC (sugars k3 d10 k3, PS)
- target mRNA inhibition (1 µM): 27%

Sequence: AAAGACTTTGAGACTC (sugars k3 d9 k3 e1, PS)
- target mRNA inhibition (1 µM): 67%

Sequence: AAAGACTTTGAGACTC (sugars kkdddddddddkekek, PS)
- target mRNA inhibition (1 µM): 45%

Sequence: AAAGATCTGGCCAGTT (sugars k3 d10 k3, PS)
- target mRNA inhibition (1 µM): 3%

Sequence: AAAGATGTACACTGAC (sugars k3 d10 k3, PS)
- target mRNA inhibition (1 µM): 57%

Sequence: AAAGTCAGTATCCCCT (sugars k3 d10 k3, PS)
- target mRNA inhibition (0.02 µM): 7%
- target mRNA inhibition (0.078 µM): 21%
- target mRNA inhibition (0.313 µM): 40%
- target mRNA inhibition (1 µM): 77%
- target mRNA inhibition (1.25 µM): 79%
- target mRNA inhibition (5 µM): 82%

Sequence: AAAGTTAATAGGACTA (sugars k3 d10 k3, PS)
- target mRNA inhibition (1 µM): 12%

Sequence: AAATAGAGTCGGTCAC (sugars k3 d10 k3, PS)
- target mRNA inhibition (1 µM): 59%

Sequence: AAATATAGAGGGTCCA (sugars k3 d10 k3, PS)
- target mRNA inhibition (1 µM): 0%

Sequence: AAATATGTCCAGGTTG (sugars k3 d9 k3 e1, PS)
- target mRNA inhibition (0.02 µM): 3%
- target mRNA inhibition (0.078 µM): 0%
- target mRNA inhibition (0.313 µM): 16%
- target mRNA inhibition (1 µM): 74%
- target mRNA inhibition (1.25 µM): 60%
- target mRNA inhibition (5 µM): 88%

Sequence: AAATATGTCCAGGTTG (sugars k3 d10 k3, PS)
- target mRNA inhibition (1 µM): 68%

Sequence: AAATGTCTTGGTAATC (sugars k3 d10 k3, PS)
- target mRNA inhibition (1 µM): 30%

Sequence: AAATTACTCCGTTCTG (sugars k3 d10 k3, PS)
- target mRNA inhibition (1 µM): 28%

Sequence: AAATTAGAGGCCCAGG (sugars k3 d10 k3, PS)
- target mRNA inhibition (1 µM): 43%

Sequence: AACAAGAGGATAGTCC (sugars k3 d10 k3, PS)
- target mRNA inhibition (1 µM): 54%

Sequence: AACAAGATTAGTCTTG (sugars k3 d10 k3, PS)
- target mRNA inhibition (1 µM): 40%

Sequence: AACAATCTCCCCAGCC (sugars k3 d10 k3, PS)
- target mRNA inhibition (1 µM): 59%

Sequence: AACAGTCTTAAACCTT (sugars k3 d10 k3, PS)
- target mRNA inhibition (1 µM): 82%

Sequence: AACAGTCTTAAACCTT (sugars kkdddddddddkekek, PS)
- target mRNA inhibition (1 µM): 37%

Sequence: AACATCTCTGGGACCA (sugars k3 d10 k3, PS)
- target mRNA inhibition (0.02 µM): 0%
- target mRNA inhibition (0.078 µM): 11%
- target mRNA inhibition (0.313 µM): 44%
- target mRNA inhibition (1 µM): 74%
- target mRNA inhibition (1.25 µM): 64%
- target mRNA inhibition (5 µM): 81%

Sequence: AACCAATTATATGAGG (sugars k3 d10 k3, PS)
- target mRNA inhibition (1 µM): 38%

Sequence: AACCTTGAATGAGTGG (sugars k3 d10 k3, PS)
- target mRNA inhibition (1 µM): 50%

Sequence: AACTAGAACTCCCAAC (sugars k3 d10 k3, PS)
- target mRNA inhibition (1 µM): 0%

Sequence: AACTGAGCTAGACAAT (sugars k3 d10 k3, PS)
- target mRNA inhibition (1 µM): 44%

Sequence: AAGAATAGGAGAGTCT (sugars k3 d10 k3, PS)
- target mRNA inhibition (1 µM): 70%

Sequence: AAGACATTCTAGCCTG (sugars k3 d10 k3, PS)
- target mRNA inhibition (1 µM): 63%

Sequence: AAGAGCCAAACTGCTA (sugars k3 d10 k3, PS)
- target mRNA inhibition (0.02 µM): 0%
- target mRNA inhibition (0.078 µM): 0%
- target mRNA inhibition (0.313 µM): 11%
- target mRNA inhibition (1 µM): 63%
- target mRNA inhibition (1.25 µM): 46%
- target mRNA inhibition (5 µM): 66%

Sequence: AAGAGTCAGTATCCTC (sugars k3 d1 m1 d8 k3, PS)
- target mRNA inhibition (1 µM): 55%

Sequence: AAGAGTCAGTATCCTC (sugars k3 d9 k3 e1, PS)
- target mRNA inhibition (1 µM): 67%

Sequence: AAGATCGGCTGGATAT (sugars k3 d10 k3, PS)
- target mRNA inhibition (1 µM): 1%

Sequence: AAGCTTATCGAGTTTA (sugars k3 d10 k3, PS)
- target mRNA inhibition (1 µM): 26%

Sequence: AAGGAAGAGGCTAGGG (sugars k3 d10 k3, PS)
- target mRNA inhibition (1 µM): 57%

Sequence: AAGGAGCCAGTTATGA (sugars k3 d10 k3, PS)
- target mRNA inhibition (1 µM): 57%
